Several values for one entry are separate records, joined by “and”; a condition that tells them apart may be missing. Identical values can stand only once.
Experiments:
NMDA NR1 + NR2A = molecular target: T1, NMDA NR1 + NR2A (Homo sapiens, UniProt Q05586+Q12879); assay: Block of recombinant NMDA receptor subtype NR1 + NR2A expressed in Xenopus oocytes; format: cell-based
T1 construct: expressed in transfected cells; host or cells: Xenopus oocytes
Text: (§1) ^c Indicates the ability to block selectively recombinant NMDA receptor
(§2) subtypes expressed in Xenopus oocytes.

NMDA NR1 + NR2B = molecular target: T2, NMDA NR1 + NR2B (Homo sapiens, UniProt Q05586+Q13224); assay: Block of recombinant NMDA receptor subtype NR1 + NR2B expressed in Xenopus oocytes; format: cell-based
T2 construct: expressed in transfected cells; host or cells: Xenopus oocytes
T2 sequence (Q13224 27-1484, other chains not shown): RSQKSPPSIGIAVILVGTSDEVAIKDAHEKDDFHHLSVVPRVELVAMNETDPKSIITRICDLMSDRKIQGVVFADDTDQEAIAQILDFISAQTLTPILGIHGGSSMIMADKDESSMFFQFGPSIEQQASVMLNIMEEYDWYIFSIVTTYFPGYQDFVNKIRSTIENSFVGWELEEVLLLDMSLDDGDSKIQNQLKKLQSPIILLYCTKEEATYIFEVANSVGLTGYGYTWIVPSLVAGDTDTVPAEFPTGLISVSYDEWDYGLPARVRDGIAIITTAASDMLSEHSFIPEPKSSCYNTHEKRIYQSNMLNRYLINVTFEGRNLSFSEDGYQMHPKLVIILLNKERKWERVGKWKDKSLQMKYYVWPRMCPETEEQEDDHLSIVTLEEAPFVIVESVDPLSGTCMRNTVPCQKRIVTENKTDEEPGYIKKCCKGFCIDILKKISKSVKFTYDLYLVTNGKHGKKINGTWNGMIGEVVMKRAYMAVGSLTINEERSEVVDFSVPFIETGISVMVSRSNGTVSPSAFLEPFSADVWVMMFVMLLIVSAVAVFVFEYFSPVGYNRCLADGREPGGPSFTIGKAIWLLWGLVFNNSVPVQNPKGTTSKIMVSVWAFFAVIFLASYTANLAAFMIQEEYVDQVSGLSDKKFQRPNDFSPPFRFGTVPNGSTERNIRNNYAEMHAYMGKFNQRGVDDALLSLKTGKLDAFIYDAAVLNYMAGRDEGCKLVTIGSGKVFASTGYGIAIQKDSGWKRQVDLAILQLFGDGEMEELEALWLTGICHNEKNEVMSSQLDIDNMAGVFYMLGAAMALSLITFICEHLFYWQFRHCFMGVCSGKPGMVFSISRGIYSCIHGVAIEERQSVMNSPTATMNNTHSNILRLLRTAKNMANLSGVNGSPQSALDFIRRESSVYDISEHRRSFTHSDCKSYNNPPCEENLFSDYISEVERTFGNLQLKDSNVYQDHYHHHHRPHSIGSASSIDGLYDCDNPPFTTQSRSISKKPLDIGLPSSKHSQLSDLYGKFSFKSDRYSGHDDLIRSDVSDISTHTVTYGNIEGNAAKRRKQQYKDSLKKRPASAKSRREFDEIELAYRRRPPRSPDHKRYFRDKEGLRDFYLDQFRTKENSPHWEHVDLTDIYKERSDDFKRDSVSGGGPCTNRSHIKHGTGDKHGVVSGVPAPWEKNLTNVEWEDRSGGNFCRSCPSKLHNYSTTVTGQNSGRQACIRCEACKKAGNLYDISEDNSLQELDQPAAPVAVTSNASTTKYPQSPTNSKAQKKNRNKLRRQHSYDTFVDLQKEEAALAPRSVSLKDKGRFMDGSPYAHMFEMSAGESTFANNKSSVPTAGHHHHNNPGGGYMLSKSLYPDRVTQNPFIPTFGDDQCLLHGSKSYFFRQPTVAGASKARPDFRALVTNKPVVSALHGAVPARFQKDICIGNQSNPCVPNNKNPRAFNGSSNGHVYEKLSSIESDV
Text: as §1, §2

α1-adrenergic receptors = assay: 3H-Prazosin binding; parameters: species or system rat (Male Fullinsdorf albino rats); conditions: rat brain membranes, 0.2 nM 3H-Prazosine, 30 minutes at room temperature, pH 7.4; read-out: Inhibition of [3H]-Prazosin binding IC50
Procedure: ^b Inhibition of binding indicates affinity for α1
(§3) Male Fullinsdorf albino rats weighing between 150-200 g were used. Membranes were prepared by homogenization of the whole brain minus cerebellum and medulla oblongata with a Plytron (10.000 rpm, 30 seconds), in 25 volumes of a cold Tris-HCl 50 mM, EDTA 10 mM, pH 7.1 buffer. The homogenate was centrifuged at 48.000 g for 10 minutes at 4° C. The pellet was resuspended using the Polytron in the same volume of buffer and the homogenate was incubated at 37° C. for 10 minutes. After centrifugation the pellet was homogenized in the same buffer and frozen at -80° C. for at least 16 hours but not more than 10 days. For the binding assay the homogenate was thawed at 37° C., centrifuged and the pellet was washed three times as above in a Tris-HCl 15mM, pH 7.4 cold buffer. The final pellet was resuspended in the same buffer and used at a final concentration of 200 mg of protein/ml.
3H-Prazosin binding experiments were performed using a Tris-HCl 50 mM, pH 7.4 buffer. For displacement experiments 0.2 nM of 3H-Prazosine were used and non specific binding was measured using […] of Chlorpromazine. The incubation time was 30 minutes at room temperature and the assay was stopped by filtration on Whatman GF/B glass fiber filters (Ubrifilter-96, Canberra Packard S. A., Zurich, Switzerland). The filters were washed 5 times with cold buffer. The radioactivity on the filter was counted on a Packard Top-count microplate scintillation counter after addition of […] of microscint 40 (Canberra Packard S. A., Zurich, Switzerland). The effects of compounds were measured using a minimum of 8 concentrations and repeated at least once. The pooled normalized values were analyzed using a non-linear regression calculation program which provide IC50 with their relative upper and lower 95% confidence limits (RS1, BBN, USA).

[1] = molecular target: T3, recombinant human ERG potassium channels (Homo sapiens, UniProt Q12809); assay: Inhibition of the HERG K+ channel, whole-cell patch-clamp, transfected CHO cells; format: cell-based; conditions: concentrations above 10 μM not tested
T3 construct: expressed in transfected cells; host or cells: CHO cells, stably transfected with pcDNA3-HERG
T3 sequence (Q12809 whole entry): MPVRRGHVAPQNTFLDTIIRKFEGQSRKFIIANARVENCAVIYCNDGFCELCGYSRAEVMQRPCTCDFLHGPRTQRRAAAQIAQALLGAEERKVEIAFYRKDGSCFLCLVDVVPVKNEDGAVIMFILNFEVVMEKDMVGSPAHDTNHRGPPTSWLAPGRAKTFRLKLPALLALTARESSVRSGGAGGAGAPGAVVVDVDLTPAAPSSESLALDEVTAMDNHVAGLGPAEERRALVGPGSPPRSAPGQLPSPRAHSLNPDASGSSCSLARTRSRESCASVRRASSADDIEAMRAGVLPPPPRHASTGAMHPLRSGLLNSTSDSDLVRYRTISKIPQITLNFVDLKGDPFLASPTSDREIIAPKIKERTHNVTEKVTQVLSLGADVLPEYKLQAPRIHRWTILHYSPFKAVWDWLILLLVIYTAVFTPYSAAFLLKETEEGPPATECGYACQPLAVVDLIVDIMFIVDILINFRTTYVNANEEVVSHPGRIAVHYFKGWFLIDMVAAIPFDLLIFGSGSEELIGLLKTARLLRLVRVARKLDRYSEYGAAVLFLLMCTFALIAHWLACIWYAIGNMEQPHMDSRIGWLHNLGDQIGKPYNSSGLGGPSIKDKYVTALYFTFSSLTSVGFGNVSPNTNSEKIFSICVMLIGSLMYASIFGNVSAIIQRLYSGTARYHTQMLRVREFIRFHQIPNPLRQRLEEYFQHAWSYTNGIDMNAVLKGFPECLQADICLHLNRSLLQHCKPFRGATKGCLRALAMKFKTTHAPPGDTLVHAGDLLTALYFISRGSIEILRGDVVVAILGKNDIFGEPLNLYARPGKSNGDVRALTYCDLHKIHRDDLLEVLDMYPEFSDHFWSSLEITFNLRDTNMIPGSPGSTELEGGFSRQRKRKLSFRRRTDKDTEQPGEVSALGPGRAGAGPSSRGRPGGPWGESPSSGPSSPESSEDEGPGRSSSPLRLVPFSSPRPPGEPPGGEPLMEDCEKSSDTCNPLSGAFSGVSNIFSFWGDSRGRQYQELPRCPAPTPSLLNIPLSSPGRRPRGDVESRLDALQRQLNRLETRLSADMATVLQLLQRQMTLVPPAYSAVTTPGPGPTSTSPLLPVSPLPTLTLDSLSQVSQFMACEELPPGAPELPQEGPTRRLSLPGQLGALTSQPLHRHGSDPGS
Text: Method 3 Methods for Studying the Inhibition of the HERG K^+ Channel CHO cells were stably transfected by a pcDNA3-HERG expression vector containing a SV40-neo cassette for selection. Cells were thinly plated into 35 mm dishes and used for the electrophysiological experiment 1/2-3 d later. […] A 10-mM stock solution of the test compound was made from pure DMSO. Test solution were made by at least 1000-fold dilution of the stock solution into the extracellular saline. […] The whole-cell configuration of the patch-clamp technique was used for the experiments. […] The membrane current was recorded for at least 3 min (18 stimuli) before compound application (control), and then for another two 3-min intervals in presence of two different concentrations of the compound. The current amplitudes (Itest) at the end of each compound application interval were divided by the mean current amplitude (Icontrol) during the initial control period to calculate the percentage effect of the compound: effect (%)=(1-Itest /Icontrol)·100. […] If after the first experiment the IC50 turned out to lie outside the range between the two chosen concentrations the concentrations were changed to bracket the IC50 in the following experiments. The compound was tested on at least three cells.

[2] = molecular target: T4, NMDA NR2B subunit containing receptors (Rattus norvegicus, UniProt P35439+Q00960); assay: 3H [R-(R*,S*)]-α-(4-Hydroxy-phenyl)-β-methyl-4-(phenyl-methyl)-1-piperidine propanol binding; parameters: species or system rat (Male Fullinsdorf albino rats); conditions: rat brain membranes, 5 nM radioligand, 2 hours at 4° C., pH 7.4; read-out: Inhibition of 3H [R-(R*, S*)]-α-(4-Hydroxy-phenyl)-β-methyl-4-(phenyl-methyl)-1-piperidine propanol binding IC50
T4 construct: Membranes were prepared by homogenization of the whole brain minus cerebellum and medulla oblongata; from tissue; host or cells: rat whole brain minus cerebellum and medulla oblongata, membranes
Procedure: ^a Inhibition of binding indicates affinity for NMDA NR2B subunit
3H [R-(R*,S*)]-α-(4-Hydroxy-phenyl)-β-methyl-4-(phenyl-methyl)-1-piperidine propanol) binding
as §3, with “Polytron” for “Plytron”, “-100°” for “-80°”, “5 mM,” for “15mM,”, “μg” for “mg”
3H [R-(R*,S*)]-α-(4-Hydroxy-phenyl)-β-methyl-4-(phenyl-methyl)-1-piperidine propanol binding experiments were performed using a Tris-HCl 50 mM, pH 7.4 buffer. For displacement experiments 5 nM of 3H [R-(R*,S*)]-α-(4-Hydroxy-phenyl)-β-methyl-4-(phenyl-methyl)-1-piperidine propanol were used and non specific binding was measured using 10 μM of tetrahydroisoquinoline and usually it accounts for 10% of the total. The incubation time was 2 hours at 4° C. and the assay was stopped by filtration on Whatmann GF/B glass fiber filters (Unifilter-96, Packard, Zurich, Switzerland). The filters were washed 5 times with cold buffer. The radioactivity on the filter was counted on a Packard Top-count microplate scintillation counter after addition of […] of microscint 40 (Canberra Packard S. A., Zurich, Switzerland).
The effects of compounds were measured using a minimum of 8 concentrations and repeated at least once. The pooled normalized values were analyzed using a non-linear regression calculation program which provide IC50 with their relative upper and lower 95% confidence limits (RS1, BBN, USA).

[3] = test system: i.c.v. NMDA-induced convulsions in mice; assay: Block of i.c.v. NMDA-induced convulsions in mice; format: in vivo; conditions: Mus musculus, iv
Text: |^d Indicates potency in mg/kg i.v. to block i.c.v. NMDA-induced | convulsions in mice.

T1 sequence (Q12879 23-1464, other chains not shown): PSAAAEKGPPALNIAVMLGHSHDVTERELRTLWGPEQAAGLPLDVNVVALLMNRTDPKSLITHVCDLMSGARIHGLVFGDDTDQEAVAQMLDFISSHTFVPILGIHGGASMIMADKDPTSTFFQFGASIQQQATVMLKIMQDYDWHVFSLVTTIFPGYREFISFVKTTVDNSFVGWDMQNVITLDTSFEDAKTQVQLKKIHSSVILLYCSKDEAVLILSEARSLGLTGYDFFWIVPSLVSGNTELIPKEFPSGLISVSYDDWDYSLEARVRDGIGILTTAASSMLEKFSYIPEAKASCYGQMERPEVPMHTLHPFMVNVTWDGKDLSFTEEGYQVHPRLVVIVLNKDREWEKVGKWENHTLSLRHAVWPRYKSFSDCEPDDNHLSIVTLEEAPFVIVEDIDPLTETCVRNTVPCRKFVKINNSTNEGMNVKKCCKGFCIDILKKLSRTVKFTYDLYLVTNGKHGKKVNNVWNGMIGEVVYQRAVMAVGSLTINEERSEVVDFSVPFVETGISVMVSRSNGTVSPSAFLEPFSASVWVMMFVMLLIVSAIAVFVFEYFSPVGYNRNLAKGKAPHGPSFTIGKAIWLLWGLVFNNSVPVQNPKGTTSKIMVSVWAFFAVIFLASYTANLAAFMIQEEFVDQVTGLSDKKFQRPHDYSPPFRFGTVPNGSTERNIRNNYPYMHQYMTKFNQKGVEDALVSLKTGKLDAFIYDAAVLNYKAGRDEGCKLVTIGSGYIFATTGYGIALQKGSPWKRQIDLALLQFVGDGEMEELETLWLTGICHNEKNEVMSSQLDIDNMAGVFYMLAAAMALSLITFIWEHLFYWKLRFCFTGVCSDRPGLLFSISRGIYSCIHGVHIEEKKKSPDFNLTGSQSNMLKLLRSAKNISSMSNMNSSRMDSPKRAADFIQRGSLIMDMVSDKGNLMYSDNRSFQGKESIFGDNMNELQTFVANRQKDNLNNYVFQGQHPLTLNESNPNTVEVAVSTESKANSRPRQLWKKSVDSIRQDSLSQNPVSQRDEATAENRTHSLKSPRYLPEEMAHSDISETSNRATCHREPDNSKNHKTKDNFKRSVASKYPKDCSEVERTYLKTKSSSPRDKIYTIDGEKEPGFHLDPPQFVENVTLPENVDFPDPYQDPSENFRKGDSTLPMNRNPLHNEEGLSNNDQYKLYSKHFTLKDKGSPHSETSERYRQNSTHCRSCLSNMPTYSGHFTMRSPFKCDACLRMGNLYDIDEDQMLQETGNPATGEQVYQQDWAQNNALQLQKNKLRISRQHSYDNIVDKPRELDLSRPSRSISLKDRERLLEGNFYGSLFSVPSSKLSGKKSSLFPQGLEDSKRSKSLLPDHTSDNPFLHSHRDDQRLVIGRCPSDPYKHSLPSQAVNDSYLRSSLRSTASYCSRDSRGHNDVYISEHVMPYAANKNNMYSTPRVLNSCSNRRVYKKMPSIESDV

Row | SMILES | IC50 (NMDA NR1 + NR2A) | IC50 (NMDA NR1 + NR2B) | IC50 (α1-adrenergic receptors) | IC50 [2] | IC50 [1] | ED50 [3]
1 | Cc1ccc(OC2CCN(CCS(=O)(=O)c3ccc(O)cc3)CC2)cc1 [Compound 2, 4-[2-(4-p-tolyloxy-piperidin-1-yl)-ethanesulfonyl]-phenol] | > 10 µM | < 10 nM | 16 µM | 24 nM and 11 to 24 nM | 4.7 µM | 0.84 mg/kg
2 | O=S(=O)(CCN1CCC(Cc2ccccc2)CC1)c1ccc(O)cc1 [Compound 1, 4[-2-(4-benzyl-piperidine-1-yl)-ethanesulfonyl]-phenol] | > 10 µM | < 10 nM | 42 µM | 18 nM and 11 to 24 nM | 4 µM | 1.1 mg/kg
3 | O=S(=O)(CCN1CC[C@H](Cc2ccccc2)[C@H](O)C1)c1ccc(O)cc1 [Compound 3, (-)(3S,4S)-4-benzyl-1-[2-(4-hydroxy-benzenesulfonyl)-ethyl]-piperidin-3-ol] | > 10 µM | 38 nM | 55 µM | 14 nM and 11 to 24 nM |  | 3.8 mg/kg

Continued, in another order:

Row | IC50 (NMDA NR1 + NR2A) | IC50 (NMDA NR1 + NR2B) | IC50 (α1-adrenergic receptors) | IC50 [2] | SMILES | IC50 [1] | ED50 [3]
4 | > 10 µM | 8 nM | 88 µM | 11 nM and 11 to 24 nM | Cc1ccc(C[C@H]2CCN(CCS(=O)(=O)c3ccc(O)cc3)C[C@H]2O)cc1 (single isomer, unassigned) [Compound 6, (-)(cis)-1-[2-(4-hydroxy-benzenesulfonyl)-ethyl]-4-(4-methyl-benzyl)-piperidin-3-ol] | 3.7 µM | 2.2 mg/kg
5 | > 100 µM | 3 nM | 3.5 µM |  | Cc1ccc(CC2(O)CCN(CCOc3ccc(O)cc3)CC2)cc1 [Compound 9, 1-[2-(4-hydroxy-phenoxy)-ethyl]-4-(4-methyl-benzyl)-piperidin-4-ol, reference compound] | 0.69 µM | 2.3 mg/kg
